Earlier results as cited in patent US20210145863A1, “LUBRICATED SUBSTRATES COMPRISING LAMBDA-CARRAGEENAN” (priority 2018, published 2021).

System: HPV
Details: in vitro (Buck, C. B., et al.)

## lambda-carrageenan
  Activity against HPV: active
